The record followed here is article PMC5368057, “Structural, thermodynamic, and phosphatidylinositol 3‐phosphate binding properties of Phafin2” (Protein Science : A Publication of the Protein Society, 2017).

The assay addresses T1, Phafin2 (Homo sapiens, UniProt Q9H8W4).
T1 construct: gene PLEKHF2; full length (PH and FYVE domains; C-terminal tryptic peptide 224-249), pGEX4T3 GST fusion, GST removed by thrombin; N-terminus Gly-Ser-Met-Val-Asp (Gly-Ser from vector); E. coli Rosetta; 27,941 Da; monomer
T1 sequence (Q9H8W4 1-249): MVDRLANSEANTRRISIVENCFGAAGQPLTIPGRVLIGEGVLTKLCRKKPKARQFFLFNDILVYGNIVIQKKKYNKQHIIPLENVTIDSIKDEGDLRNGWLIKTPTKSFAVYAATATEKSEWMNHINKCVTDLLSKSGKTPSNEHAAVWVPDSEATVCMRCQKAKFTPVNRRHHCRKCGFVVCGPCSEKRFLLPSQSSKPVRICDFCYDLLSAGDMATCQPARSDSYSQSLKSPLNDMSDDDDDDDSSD
The experiment in a line: SPR, liposomes on L1 chip, two-state conformational change fit. The following applies: 1.5% lipid in phosphatidylcholine (DOPC) liposomes, control liposomes without it; liposome buffer 20 mM HEPES pH 7.0, 100 mM NaCl; room temperature; apparent. The format is binding. Background: SPR reads the build-up and loss of mass on a sensor chip optically.

For `CCCCCCCCCCCCCCCC(=O)OC[C@H](COP(=O)(O)O[C@@H]1[C@H](O)[C@H](OP(=O)(O)O)[C@@H](O)[C@H](O)[C@H]1O)OC(=O)CCCCCCCCCCCCCCC` [dipalmitoyl PtdIns(3)P], the Kd came to 285 ± 80 nM.
